Measured values reported in publication PMC8605905 (Oxidative Medicine and Cellular Longevity, 2021).

Key:
CRE-GFP 293 cells [1] = test: MTT cell viability of CRE-GFP 293 cells; assay type: cell-based, Human; details: 2 μM for 3–6 h
Description: On day 1, CRE-GFP 293 cells were seeded into 48-well plates (5 × 10^4/well). After 24 h, cells were treated with Ca^2+ ionophore (2 μM) (Sigma-Aldrich) for 0–24 h. Cell viability was measured using 3,(4,5-dimethylthiazol-2-yl)-2,5-diphenyltetrazolium bromide (MTT) assay (Sigma-Aldrich). The absorbance of the insoluble purple formazan dye was quantified at 570 nm on a μQuant microplate spectrophotometer (Bio-Tek). In addition, the cells were treated with the Ca^2+ ionophore A23187 (0.5–10 μM) (Sigma-Aldrich) for 5 h, followed by analysis of GFP fluorescence by flow cytometry (Becton–Dickinson, Franklin Lakes, NJ, USA) with excitation/emission wavelengths at 488/507 nm. To monitor CREB activation, cells were treated with forskolin or coumarin-chalcone derivatives (5–10 μM) in the presence or absence of Ca^2+ ionophore (2 μM) for 5 h, and GFP fluorescence was analysed.

CRE-GFP 293 cells [2] = test: CRE-GFP 293 reporter cell assay (flow cytometry); assay type: cell-based, Human; details: 0.5–2 μM for 5 h
[3] = in vivo, po; cited from earlier work

Row | Compound | Cell viability (MTT) (CRE-GFP 293 cells [1]) | CRE-motif-driven GFP expression (CRE-GFP 293 cells [2]) | Share of orally administered dose that enters the brain [3]
1 | CNc1ccc2oc(C[C@H]3O[C@@]4(CC[C@H]3C)O[C@H]([C@H](C)C(=O)c3ccc[nH]3)[C@H](C)C[C@H]4C)nc2c1C(=O)O [Ca^2+ ionophore] | No significant cell death | stimulated | 
2 | N[C@@H](Cc1ccc(O)c(O)c1)C(=O)O [levodopa] |  |  | about 1%
